Structures can show the parent of a compound that is named as a salt.
Columns and labels:
isolated rabbit aorta = experiment: isolated rabbit aorta: contraction of aorta rings depolarized with potassium chloride after pretreatment with the test substance; conditions: Oryctolagus cuniculus, concentration of 10^-6 M, KCl-depolarized aorta rings
Text: Their calcium antagonistic or calcium agonistic action can be shown using the model of the isolated rabbit aorta. This entails aorta rings being depolarized with potassium chloride, whereupon they contract. Pretreatment with the test substance is followed by a diminution in contraction in the case of the compounds acting as calcium antagonists, but by an intensification of contraction in the case of compounds acting as calcium agonists. For example, the compound from Example 2 at a concentration of 10^-6 M results in a 32% diminution in contraction. The compound from Example 3 at a concentration of 10^-6 M results in a 93% intensification of contraction.

calcium channels = experiment: displacement of tritium-labeled nitrendipine from membrane preparations containing isolated calcium channels; format: binding
Procedure: Their action on the calcium channels can be shown using the biochemical test model of the displacement of tritium-labeled nitrendipine. In this test, membrane preparations which contain isolated calcium channels are loaded with the labeled substance. After incubation with the test substance, the radioactivity released and the radioactivity remaining on the membrane are determined. The IC50 values shown by the compounds of the formula I, according to the invention, in this model are from 10^-6 molar to 10^-10 molar.

IC50 (calcium channels) [nM] | SMILES | inhibition at 1 µM (isolated rabbit aorta; calcium antagonistic action, read-out: diminution in contraction) [%] | activation at 1 µM (isolated rabbit aorta; calcium agonistic action, read-out: intensification of contraction) [%]
0.12 | COc1cc(CCN2CCN(CC#CCOc3ccccc3[C@@]3(C(C)C)Sc4ccccc4N(C)C3=O)CC2)cc(OC)c1OC [Example 2, (R)-2-Isopropyl-4-methyl-2-[2-[4-[4-(3,4,5-trimethoxyphenethyl)-1-piperazinyl]-2-butyn-1 yloxy]phenyl]-2H-1,4-benzothiazin-3(4H)-one dihydrochloride] | 32 | –
– | COc1cc(CCN2CCN(C/C=C\COc3ccccc3[C@@]3(C(C)C)Sc4ccccc4N(C)C3=O)CC2)cc(OC)c1OC [Example 3, (R)-2-isopropyl-4-methyl-2-[2-[4-[4-(3,4,5-trimethoxyphenethyl)-1-piperazinyl]-2-cis-buten-1-yloxy]phenyl]-2H-1,4-benzothiazin-3(4H)-one dihydrochloride] | – | 93

From patent publication US5025010A, “Benzothiazinone derivatives, and pharmaceuticals containing them” (Hoechst Aktiengesellschaft, priority 1987, dated 1991)
